According to patent US20020028474A1, “Composition for immunohistochemical staining” (DAIICHI PURE CHEMICAL CO., LTD., priority 1996, published 2002):
Structures can show the parent of a compound that is named as a salt.

Key:
Assay type in all cases: physicochemical
[1] = Fluorescence observed by infrared ray microscope on cotton gauze thread, with or without sodium distearoylphosphatidate/octyl glucoside solution (Example 1); set-up: key: +++: Definitely bright; ++: Bright.; +: Observable; ±: Slightly observable; details: for Fluorescence intensity, No addition group: no DSPA/OG solution; for Fluorescence intensity, Addition group: sodium distearoylphosphatidate + octyl glucoside solution added
Method: Octyl glucoside (Dojindo Laboratories, 880 mg) was carefully added to phosphate buffered saline (10 ml, pH 7.4) and dissolved with stirring on a water bath at 40° C. Sodium distearoylphosphatidate (148.8 mg) was added to the resulting solution and dissolved with stirring over a water bath at 60° C., and then the solution was added with phosphate buffered saline up to a final volume of 20 ml. The solution was returned to room temperature and stored as frozen aliquots of 1 ml volume before use. The final concentrations of sodium distearoylphosphatidate and octyl glucoside in the solution were 10 mM and 150 mM, respectively.
The above diagnosis marker (54 μg) in the lyophilized state was added with 10% (v/v) dimethyl sulfoxide (DMSO)/phosphate buffered saline (20 μl, pH 7.4) and dissolved. The above solution of sodium distearoylphosphatidate and octyl glucoside (5 μl) was added to 5 μl of the resulting solution, which was warmed beforehand, and mixed by repeating careful suction and ejection using a micropipette to obtain a composition of the present invention in the form of an aqueous solution. By using an indocyanine green (ICG) solution, ICC-sulfo-OSu solution, and water (control) instead of the solution of the diagnosis marker, aqueous compositions were prepared in the same manner as described above.
BHSM-IR (Olympus Optical) was used as an infrared ray microscope that allows observation in visible light to near infrared light region. The microscope was equipped with an excitation light transmitting filter that transmits lights of 710-790 nm (Asahi Bunko) under the sample, and with an excitation light cutting filter that transmits lights of 810-920 nm (Asahi Bunko) over the sample. KP-MI from Hitachi Electronic Engineering was used as a CCD, and fluorescence caught by the CCD was taken into an image collecting apparatus (EVIP-230, Olympus Optical), and recorded in an image recording apparatus (S321S, Olympus Optical) via an amplification system (Olympus Optical).
5 μl of each of the samples was dropped onto a cotton gauze thread (1 cm) placed on an object glass, and images were observed under irradiation by ordinary light and infrared light using the above optical system. […] The recorded images were converted into final images through an image processing comprising the steps of integration of an original image, integration of a background image, formation of a subtraction image, formation of a filtering image, and contrast enhancement by using the above-mentioned apparatus. […] In the table, all of the concentrations indicate those calculated based on ICG concentration. […] In the figure, (a) represents the result obtained under irradiation of ordinary light, and (b) represents the result obtained under irradiation of infrared ray.

[2] = Fluorescence intensity enhancing effect versus octyl glucoside concentration (Example 3); details: for Fluorescence wavelength / Fluorescence intensity: excitation 768 nm; for Fluorescence intensity: labeled anti-mucin antibody 83.3 nM, 50° C.; for Fluorescence intensity (standard): 1 ppm, λex=251 nm, λem=450 nm
Method: The final antibody concentration in the diagnostic markers was 83.3 nM, and the IOG-sulfo-OSu concentration was 1.33 μM. Fluorescence spectra of the samples were measured in the same manner as in Example 2. The slit width was 2 nm for each of excitation light and fluorescence.

[3] = Fluorescence spectrum of compositions of ICG-sulfo-OSu-labeled mouse anti-mucin antibody with fluorescence intensity enhancing agents (Example 2); details: 1 ppm, λex=255 nm, λem=451 nm
Method: The above diagnostic marker in the form of lyophilized product obtained from the mouse anti-mucin antibody (100 μg) was added with 4.0 ml of phosphate buffered saline and dissolved. 1.5 ml of the resulting solution was added with 1.5 ml of a solution of the fluorescence intensity enhancing agent of the present invention, and then the mixture was warmed over a water bath at 50° C. to prepare a final sample. As a control, a solution was prepared in the same manner by adding 1.5 ml of phosphate buffered saline. The final antibody concentration in the diagnostic marker was 83.3 nM, and the ICG-sulfo-OSu concentration was 1.33 μM. Fluorescence spectrum of each sample was measured by using a Hitachi spectrophotometer 650-40. The slit width was 5 nm for each of excitation light and fluorescence.

[4] = before the spectrum measurement

## CC1(C)C(/C=C/C=C/C=C/C=C2\N(CCCCS(=O)(=O)O)c3ccc4ccccc4c3C2(C)C)=[N+](CCCCS(=O)(=O)[O-])c2ccc3ccccc3c21 [ICC, indocyanine green]
[1]; 1 mg/ml in terms of ICG, fluorescence at 800 nm or more
  Fluorescence intensity, No addition group: ++
[1]; 1 mg/ml in terms of ICG
  Fluorescence intensity, Addition group: ++

## CC1(C)C(/C=C/C=C/C=C/C=C2\N(CCCCS(=O)(=O)[O-])c3ccc4ccccc4c3C2(C)C)=[N+](CCCCCC(=O)ON2C(=O)CC(S(=O)(=O)[O-])C2=O)c2ccc3ccccc3c21.[Na+] (stereo not drawn) [ICG-sulfo-OSu, indocyanine green-N-hydroxysulfosuccinimide ester]
[1]; 10 μg/ml in terms of ICG
  Fluorescence intensity, No addition group: +
  Fluorescence intensity, Addition group: +
[1]; 100 μg/ml in terms of ICG
  Fluorescence intensity, No addition group: ±
  Fluorescence intensity, Addition group: ++

## CCCCCCCCO[C@@H]1O[C@H](CO)[C@@H](O)[C@H](O)[C@H]1O [OG, octyl glucoside]
[2]; ICG-sulfo-OSu labeled anti-mucin antibody
  shift of fluorescence wavelength to a longer wavelength region versus octyl glucoside concentration: sharp increases were observed at concentrations near the critical micelle concentration
[2]; ICG-sulfo-OSu labeled anti-mucin antibody, critical micelle concentration 25 mM
  dependence of fluorescence intensity on octyl glucoside concentration: Sharp increases of fluorescence intensity were observed at concentrations near the critical micelle concentration
[2]; OG 1.0 mM
  Fluorescence wavelength: 806 nm
  Fluorescence intensity: 0.150
[2]; OG 1.50 mM
  Fluorescence wavelength: 821 nm
  Fluorescence intensity: 0.588
[2]; OG 5.0 mM
  Fluorescence wavelength: 804 nm
  Fluorescence intensity: 0.150
[2]; OG 10.0 mM
  Fluorescence wavelength: 809 nm
  Fluorescence intensity: 0.189
[2]; OG 20.0 mM
  Fluorescence wavelength: 817 nm
  Fluorescence intensity: 0.436
[2]; OG 37.5 mM
  Fluorescence wavelength: 817 nm
  Fluorescence intensity: 0.520
[2]; OG 50.0 mM
  Fluorescence wavelength: 820 nm
  Fluorescence intensity: 0.515
[2]; OG 75.0 mM
  Fluorescence wavelength: 816 nm
  Fluorescence intensity: 0.525
[2]; OG 100 mM
  Fluorescence wavelength: 816 nm
  Fluorescence intensity: 0.600

## C=C[C@H]1C[N@@]2CC[C@H]1C[C@H]2[C@H](O)c1ccnc2ccc(OC)cc12 [quinine sulfate, reference compound]
[3]; after the spectrum measurement
  Fluorescence intensity (standard): 69.5
[3]; [4]
  Fluorescence intensity (standard): 68.0
[2]; after the spectrum measurement
  Fluorescence intensity (standard): 96.0
[2]; [4]
  Fluorescence intensity (standard): 100.0
